# Laboratory results reported in patent publication EP0019589A1, “Tripeptide derivatives and their use in a process for determining enzymes” (Pentapharm A.G., priority 1979, dated 1980).
# Non-standard residues stand in square brackets, D forms with d. Residues, ends and D or L forms follow the SMILES beside them. *: point of attachment. Cha = N[C@@H](CC1CCCCC1)C(=O)O; dCha = N[C@H](CC1CCCCC1)C(=O)O; dChg = N[C@@H](C(=O)O)C1CCCCC1; pNA = O=[N+]([O-])c1ccc(N*)cc1; dNle = CCCC[C@@H](N)C(=O)O; dNva = CCC[C@@H](N)C(=O)O; dAbu = CC[C@@H](N)C(=O)O; Nva = CCC[C@H](N)C(=O)O; Abu = CC[C@H](N)C(=O)O
# Assays:
# Type in all cases: biochemical
# [1] = target: T1, Submandibularis-Kallikrein (Homo sapiens, UniProt P06870); test: Cleavage of chromogenic substrate by submandibular (glandular) kallikrein in human sputum; conditions: 1 ml human sputum, per min; Substratkonzentration 2 x 10^-4 molar
# T1 construct: Man mischt 0,5 ml Sputum mit 2 ml TRIS-Imidazol-Puffer; from tissue; host or cells: human sputum
# T1 sequence (P06870 25-262): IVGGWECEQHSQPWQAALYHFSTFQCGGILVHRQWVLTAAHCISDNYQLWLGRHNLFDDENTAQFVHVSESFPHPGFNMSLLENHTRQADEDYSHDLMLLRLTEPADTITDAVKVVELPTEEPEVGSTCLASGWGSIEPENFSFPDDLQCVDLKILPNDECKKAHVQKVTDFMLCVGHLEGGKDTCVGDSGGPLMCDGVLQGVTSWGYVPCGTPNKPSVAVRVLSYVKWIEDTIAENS
# Summary of the method: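 Sputum mixed with TRIS-imidazole buffer (ionic strength 1.0), preincubated 5 min at 37°C and centrifuged; supernatant incubated with aqueous substrate solution (2 x 10^-3 M, stock). p-Nitroaniline release followed continuously at 405 nm for 5-10 min; activity expressed as mU per ml sputum from ΔOD/min.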
# Humanthrombin = target: T2, Humanthrombin (Homo sapiens, UniProt P00734); test: Cleavage of chromogenic substrate by human NIH thrombin; conditions: 1 NIH-Einheit human thrombin, per min; Substratkonzentration 2 x 10^-4 molar
# T2 construct: Humanplasmin und hu-manem NIH-Thrombin
# Summary of the method: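 Thrombin hydrolysis of chromogenic p-nitroanilide substrate read spectrophotometrically at 405 nm; fluorogenic naphthylamine, methylcoumarylamine or di(methoxycarbonyl)phenylamine substrates read continuously by fluorescence emission at 400-470 nm. Activity taken as product formed per unit time; 1 µmol product/min defined as 1 enzyme unit for a given substrate.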
# Humanplasmin = target: T3, Humanplasmin (Homo sapiens, UniProt P00747); test: Cleavage of chromogenic substrate by human plasmin; conditions: 1 CU-Einheit human plasmin, per min; Substratkonzentration 2 x 10^-4 molar
# T3 construct: da bei der Aktivierung aus 1 Molekül Plasminogen 1 Molekül Plasmin entsteht
# T3 sequence (P00747 581-810 limits assumed): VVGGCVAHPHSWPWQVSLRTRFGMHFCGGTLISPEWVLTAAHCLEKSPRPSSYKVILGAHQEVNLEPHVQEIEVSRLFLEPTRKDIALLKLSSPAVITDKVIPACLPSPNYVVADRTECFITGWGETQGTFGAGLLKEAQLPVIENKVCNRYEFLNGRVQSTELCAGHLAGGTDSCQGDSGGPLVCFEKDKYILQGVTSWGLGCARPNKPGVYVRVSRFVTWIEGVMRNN
# T3 sequence (P00747 97-580 partner limits assumed): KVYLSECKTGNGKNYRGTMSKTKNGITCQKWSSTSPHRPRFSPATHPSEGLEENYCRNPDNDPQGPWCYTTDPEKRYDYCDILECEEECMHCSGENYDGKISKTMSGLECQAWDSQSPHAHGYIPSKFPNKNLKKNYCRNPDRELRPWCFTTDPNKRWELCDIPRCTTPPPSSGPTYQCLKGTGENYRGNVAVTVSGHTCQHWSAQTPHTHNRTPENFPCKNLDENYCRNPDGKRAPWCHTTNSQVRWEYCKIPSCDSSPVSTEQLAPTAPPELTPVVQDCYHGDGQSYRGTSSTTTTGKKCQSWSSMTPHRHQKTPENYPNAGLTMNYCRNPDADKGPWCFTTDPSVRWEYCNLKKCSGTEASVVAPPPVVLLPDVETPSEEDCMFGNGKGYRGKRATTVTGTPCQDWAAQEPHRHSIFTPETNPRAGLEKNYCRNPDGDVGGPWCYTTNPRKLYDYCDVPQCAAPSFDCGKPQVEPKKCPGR
# Urinkallikrein = target: T4, Urinkallikrein (Homo sapiens, UniProt P06870); test: Cleavage of chromogenic substrate by urinary kallikrein in human urine; conditions: 1 ml human urine (pooled morning urine of healthy persons), per min; Substratkonzentration 2 x 10^-4 molar
# T4 construct: 1 ml Urin und 1 ml TRIS-Imidazol-Puffer mit pH 7,9; from tissue; host or cells: human urine
# T4 sequence (P06870 25-262): as the sequence (P06870 25-262) above
SMILES,Menge des durch 1 ml Humansputum pro Min. freigesetzten Spaltproduktes R-NH2 in Nanomol (Submandibularis-Kallikrein) [1],Menge des durch 1 NIH-Einheit Thrombin pro Min. freigesetzten Spaltproduktes R-NH2 in Nanomol (Humanthrombin) (Humanthrombin),Menge des durch 1 CU-Einheit Humanplasmin pro Min. freigesetzten Spaltproduktes R-NH2 in Nanomol (Humanplasmin) (Humanplasmin) [Nanomol],Menge des durch 1 ml Humanurin pro Min. freigesetzten Spaltproduktes R-NH2 in Nanomol (Urinkallikrein) (Urinkallikrein)
"CCC[C@H](NC(=O)[C@H](N)CC1CCCCC1)C(=O)N[C@@H](CCCNC(=N)N)C(=O)Nc1ccc([N+](=O)[O-])cc1 [Beispiel 69, 2HBr.H-D-CHA-Nval-Arg-pNA] (H-[dCha]-[Nva]-Arg-pNA)","14,2 Nanomol","97,1 Nanomol",574,"0,35 Nanomol"
"CCC[C@H](NC(=O)[C@H](N)C1CCCCC1)C(=O)N[C@@H](CCCNC(=N)N)C(=O)Nc1ccc([N+](=O)[O-])cc1 [Beispiel 70, 2HBr.H-D-CHG-Nval-Arg-pNA] (H-[dChg]-[Nva]-Arg-pNA)","24,2 Nanomol","67,4 Nanomol",488,"0,38 Nanomol"
"CCC[C@@H](N)C(=O)N[C@@H](CC1CCCCC1)C(=O)N[C@@H](CCCCN)C(=O)Nc1ccc([N+](=O)[O-])cc1 [Beispiel 71, 2HBr.H-D-Nval-CHA-Lys-pNA] (H-[dNva]-[Cha]-Lys-pNA)","18,04 Nanomol","6,9 Nanomol",655,"1,87 Nanomol"
"CC[C@@H](N)C(=O)N[C@@H](CC1CCCCC1)C(=O)N[C@@H](CCCCN)C(=O)Nc1ccc([N+](=O)[O-])cc1 [Beispiel 72, 2HBr.H-D-But-CHA-Lys-pNA] (H-[dAbu]-[Cha]-Lys-pNA)","21,0 Nanomol","3,6 Nanomol",532,"2,22 Nanomol"
"CC(C)C[C@@H](N)C(=O)N[C@@H](CC1CCCCC1)C(=O)N[C@@H](CCCCN)C(=O)Nc1ccc([N+](=O)[O-])cc1 [Beispiel 73, 2HBr.H-D-Leu-CHA-Lys-pNA] (H-[dL]-[Cha]-Lys-pNA)","19,3 Nanomol","3,4 Nanomol",778,"1,73 Nanomol"
"CCCC[C@@H](N)C(=O)N[C@@H](CC1CCCCC1)C(=O)N[C@@H](CCCCN)C(=O)Nc1ccc([N+](=O)[O-])cc1 [Beispiel 74, 2HBr.H-D-Nleu-CHA-Lys-pNA] (H-[dNle]-[Cha]-Lys-pNA)","8,4 Nanomol","3,9 Nanomol",695,"0,77 Nanomol"
"CC[C@H](NC(=O)[C@H](N)C1CCCCC1)C(=O)N[C@@H](CCCNC(=N)N)C(=O)Nc1ccc([N+](=O)[O-])cc1 [Beispiel 75, 2HBr.H-D-CHG-But-Arg-pNA] (H-[dChg]-[Abu]-Arg-pNA)","14,5 Nanomol","102,9 Nanomol",439,"0,51 Nanomol"
"CC[C@H](NC(=O)[C@H](N)CC1CCCCC1)C(=O)N[C@@H](CCCNC(=N)N)C(=O)Nc1ccc([N+](=O)[O-])cc1 [Beispiel 76, 2HBr.H-D-CHA-But-Arg-pNA] (H-[dCha]-[Abu]-Arg-pNA)","18,1 Nanomol","108,9 Nanomol",478,"0,51 Nanomol"
"CC[C@H](NC(=O)[C@H](N)CC1CCC(O)CC1)C(=O)N[C@@H](CCCNC(=N)N)C(=O)Nc1ccc([N+](=O)[O-])cc1 (stereo partly drawn) [Beispiel 77, 2HBr.H-D-CHT-But-Arg-pNA]","18,2 Nanomol","114,2 Nanomol",463,"0,64 Nanomol"
